Assay results reported in the NIST ThermoML archive (doi:10.1016/j.tca.2015.10.014).
± gives the expanded uncertainty stated by the source.

Conditions: Crystal, Calculated from knudsen effusion weight loss

[Br-].[Br-].[Pb+2] [lead(II) bromide]
Conditions | vapor or sublimation pressure [kPa]
532.3 K | 7e-06 ± 2e-06
533 K | 8e-06 ± 2e-06
533.1 K | 8e-06 ± 2e-06
553.2 K | 3.6e-05 ± 9e-06
553.7 K | 2.6e-05 ± 6e-06
553.9 K | 2.7e-05 ± 7e-06
571.5 K | 6.1e-05 ± 1.5e-05
572.5 K | 7.8e-05 ± 1.9e-05
573.7 K | 7.5e-05 ± 1.8e-05
590.8 K | 0.000233 ± 5.7e-05
591.9 K | 0.000178 ± 4.3e-05
592.6 K | 0.0002 ± 4.9e-05
611.3 K | 0.000418 ± 0.0001
611.5 K | 0.000573 ± 0.00014
612.9 K | 0.000512 ± 0.00013
632.7 K | 0.000886 ± 0.00022
633.5 K | 0.001153 ± 0.00029
633.9 K | 0.001334 ± 0.00034
